Measurements taken from patent publication US6921545B2 (priority 2001, dated 2005).
Where “and” joins values, the source holds several entries; their conditions need not be identical. Equal entries are not always repeated. Structures can show the parent of a compound that is named as a salt.

Assays:
[1] = test system: insect eggs; conditions: in vivo; cited from earlier work
[2] = test system: Sitophilus granarius, Ephestia kuehniella eggs, Tribolium castaneum and brood; conditions: in vivo
[3] = test system: Tribolium castaneum 30 live beetles and brood; conditions: in vivo
[4] = test system: Sitophilus granarius (broodmixture); conditions: in vivo
[5] = test system: Ephestia kuehniella (50 eggs); conditions: in vivo

| SMILES | minimum concentration for achieving an ovicidal action [1] [g/m^3] | further results |
| --- | --- | --- |
| O=C=S [carbonyl sulfide] | 5 |  |
| CN=C=S [methyl isothiocyanate] | 5 |  |
| COC=O [methyl formate] | 20 |  |
| CC#N [acetonitrile] | 10 |  |
| O=S(=O)(F)F [SO2F2, sulfuryl fluoride] |  | offspring produced [2]: offspring were produced; Offspr. (offspring in the fumigation test) [3]: 3 beetles and 4 beetles and 5 beetles; Offspr. (offspring in the fumigation test) [4]: 0 beetles; Offspr. (offspring in the fumigation test) [5]: 0 |
